The target of test [1] is recombinant human NF-kappaB-inducing kinase (NIK/MAP3K14) (Homo sapiens (Human), UniProt Q99558). Briefly: Inhibition of auto-phosphorylation of recombinant human NIK/MAP3K14 (AlphaScreen). In kind it is biochemical. The conditions noted are these: NIK auto-phosphorylation, 5 μM ATP, 1 nM NIK, 2 h at 25° C.; average of values. The method, boiled down:
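GST-tagged NIK (1 nM) auto-phosphorylated with 5 μM ATP for 2 h at 25° C. in 50 mM Tris pH 7.5, 5 mM MgCl2, 1 mM EGTA, 1 mM DTT, 0.1 mM Na3VO4, 0.01% Tween 20 (0.7% DMSO). Detected by AlphaScreen via anti-phospho-IKK Ser176/180 antibody; IC50 from sigmoidal fit of % inhibition versus log concentration.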

Test [2] relates to p-IKKα levels in L363 (NIK translocated multiple myeloma) cells. Briefly: Effect of compounds on p-IKKα levels in L363 cells (AlphaLISA SureFire Ultra). Format: cell-based, human. The conditions noted are these: Homo sapiens, L-363, 6 h, BAFF stimulated, MG132, 6 h, average of values, read-out: Assay 2 IC50. The method, boiled down:
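Inhibition of p-IKKα (Ser176/180) read by AlphaLISA after 6 h, 37 °C compound exposure (11-point 1:3 series, 0.3% DMSO) of L363 cells pre-incubated overnight ± 250 ng/ml BAFF and plated ± BAFF ± 10 μM MG132. Normalised to BAFF/MG132/DMSO and unstimulated controls; IC50 by sigmoidal fitting, duplicates.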
Background: Bead proximity is the source of the signal in Alpha formats.

Consider 27 compounds from patent US20240199605A1, “SMALL MOLECULAR INHIBITORS OF NF-kB INDUCING KINASE” (Janssen Pharmaceutica NV, priority 2019, published 2024).

Bounds are passed on as bounds.

recombinant human NF-kappaB-inducing kinase (NIK/MAP3K14), sequence (Q99558 whole entry): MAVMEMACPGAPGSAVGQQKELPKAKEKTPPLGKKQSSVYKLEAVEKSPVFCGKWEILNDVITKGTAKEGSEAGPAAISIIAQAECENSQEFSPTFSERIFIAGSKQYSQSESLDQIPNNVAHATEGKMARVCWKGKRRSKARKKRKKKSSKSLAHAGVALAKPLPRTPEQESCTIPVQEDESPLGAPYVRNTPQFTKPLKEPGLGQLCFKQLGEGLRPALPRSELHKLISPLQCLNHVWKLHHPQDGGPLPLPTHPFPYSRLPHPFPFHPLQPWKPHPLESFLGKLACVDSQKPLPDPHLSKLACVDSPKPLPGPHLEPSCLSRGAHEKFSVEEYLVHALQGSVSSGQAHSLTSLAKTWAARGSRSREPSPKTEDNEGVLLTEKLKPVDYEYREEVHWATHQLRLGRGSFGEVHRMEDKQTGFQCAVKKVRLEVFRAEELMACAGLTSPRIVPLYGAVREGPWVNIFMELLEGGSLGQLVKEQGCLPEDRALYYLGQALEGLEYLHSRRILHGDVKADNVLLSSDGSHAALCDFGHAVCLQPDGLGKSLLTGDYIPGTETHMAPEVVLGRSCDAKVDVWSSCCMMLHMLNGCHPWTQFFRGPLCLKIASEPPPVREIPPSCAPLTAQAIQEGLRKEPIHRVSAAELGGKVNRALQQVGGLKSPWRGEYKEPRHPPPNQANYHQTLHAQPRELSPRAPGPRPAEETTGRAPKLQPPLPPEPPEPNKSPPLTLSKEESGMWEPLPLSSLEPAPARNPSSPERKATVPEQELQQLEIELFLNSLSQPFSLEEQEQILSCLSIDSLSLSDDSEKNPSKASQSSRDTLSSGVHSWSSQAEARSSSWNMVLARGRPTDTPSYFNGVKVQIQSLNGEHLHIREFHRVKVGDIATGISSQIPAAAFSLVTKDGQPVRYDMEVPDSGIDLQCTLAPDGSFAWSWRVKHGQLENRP

Broadly, the IC50 is the concentration that inhibits the measured activity by half. Take `Nc1nccc2cnc(-c3cccc(C#CC4(O)CCN(CC(F)(F)F)C4=O)c3)nc12` (stereo in doubt) [Example 72, (R)-3-[2-[3-(8-Aminopyrido[3,4-d]pyrimidin-2-yl)phenyl]ethynyl]-3-hydroxy-1-(2,2,2-trifluoroethyl)pyrrolidin-2-one]: the 50% inhibitory concentration (IC50) in test [1] is 8 nM; in test [2], 910 nM.

As to `Cc1nc(N)c2nc(-c3cccc(C#C[C@@](C)(O)c4cnc(C)s4)c3)ccc2n1` [Example 158, (R)-4-(3-(4-Amino-2-methylpyrido[3,2-d]pyrimidin-6-yl)phenyl)-2-(2-methylthiazol-5-yl)but-3-yn-2-ol], the half-inhibitory concentration (IC50) in test [1] is 1930 nM; in test [2] it was more than 5000 nM.

Regarding `CN1CC[C@@](O)(C#Cc2cccc(-c3ccc4c(c3)c(N)nn4C(=O)OC(C)(C)C)c2)C1=O` [Example 169, (R)-tert-Butyl 3-amino-5-[3-[2-(3-hydroxy-1-methyl-2-oxo-pyrrolidin-3-yl)ethynyl]phenyl]indazole-1-carboxylate], the IC50 in test [1] was 1210 nM; in test [2], more than 5000 nM.

Regarding `CN1CCC(O)(C#Cc2cccc(-c3ccc4ccnc(N)c4n3)c2)C1=O` (stereo in doubt) [Example 19, (R)-3-[2-[3-(8-Amino-1,7-naphthyridin-2-yl)phenyl]ethynyl]-3-hydroxy-1-methyl-pyrrolidin-2-one], the 50% inhibitory concentration (IC50) is not above 0.5 nM in test [1] and 9.9 nM in test [2].

With `CN1CC[C@@](O)(C#Cc2cccc(-c3ncc4ncnc(N)c4n3)c2)C1=O` [Example 13, (R)-3-[2-[3-(4-Aminopyrimido[5,4-d]pyrimidin-6-yl)phenyl]ethynyl]-3-hydroxy-1-methyl-pyrrolidin-2-one], the concentration for half-maximal inhibition (IC50) was not above 0.5 nM in test [1] and 2.8 nM in test [2].

In the case of `CC(C)Nc1cc(-c2cccc(C#C[C@]3(O)CCN(C)C3=O)c2)nc2c(N)ncnc12` [Example 297, (R)-3-[2-[3-[4-Amino-8-(isopropylamino)pyrido[3,2-d]pyrimidin-6-yl]phenyl]ethynyl]-3-hydroxy-1-methyl-pyrrolidin-2-one], the concentration for half-maximal inhibition (IC50) in test [1] was determined as 1.9 nM; in test [2], 31 nM.

For the compound `Cc1nnc([C@](C)(O)C#Cc2cccc(-c3ccc4ncnc(N)c4c3)c2)o1` [Example 106, (R)-4-[3-(4-Aminoquinazolin-6-yl)phenyl]-2-(5-methyl-1,3,4-oxadiazol-2-yl)but-3-yn-2-ol], the IC50 in test [1] is 14 nM; in test [2], 1450 nM.

Consider `CN1CC[C@@](O)(C#Cc2cccc(-c3cc4c(N)ncnc4s3)c2)C1=O` [Example 141, (R)-3-((3-(4-Aminothieno[2,3-d]pyrimidin-6-yl)phenyl)ethynyl)-3-hydroxy-1-methylpyrrolidin-2-one], for which the IC50 came to 16 nM in test [1] and 2450 nM in test [2].

`CN1CC[C@@](O)(C#Cc2cccc(-c3cc(-c4ccccc4)c4ncnc(N)c4n3)c2)C1=O` [Example 310, (R)-3-((3-(4-Amino-8-phenylpyrido[3,2-d]pyrimidin-6-yl)phenyl)ethynyl)-3-hydroxy-1-methylpyrrolidin-2-one]: the IC50 in test [1] amounted to 0.7 nM; in test [2] it was 13 nM.

As for `CNc1cc(-c2cccc(C#C[C@]3(O)CCN(C)C3=O)c2)nc2c(N)ncnc12` [Example 296, (R)-3-[2-[3-[4-Amino-8-(methylamino)pyrido[3,2-d]pyrimidin-6-yl]phenyl]ethynyl]-3-hydroxy-1-methyl-pyrrolidin-2-one], the IC50 was not above 0.5 nM in test [1] and 6.9 nM in test [2].

As for `CN1CC[C@@](O)(C#Cc2cccc(-c3cc(C4CCC4)c4ncnc(N)c4n3)c2)C1=O` [Example 309, (R)-3-((3-(4-Amino-8-cyclobutylpyrido[3,2-d]pyrimidin-6-yl)phenyl)ethynyl)-3-hydroxy-1-methylpyrrolidin-2-one], the figures for the 50% inhibitory concentration (IC50) in test [1] and in test [2] were not above 0.5 nM and 9.7 nM, respectively.

In the case of `CN1CC[C@@](O)(C#Cc2cccc(-c3nc(N(C)C)c4ccnc(N)c4n3)c2)C1=O` [Example 58, (R)-3-((3-(8-Amino-4-(dimethylamino)pyrido[3,4-d]pyrimidin-2-yl)phenyl)ethynyl)-3-hydroxy-1-methylpyrrolidin-2-one], the IC50 was determined as 0.7 nM in test [1] and 15 nM in test [2].

On to `Cc1nc(N)c2nc(-c3cccc(C#CC4(O)CCCc5cccnc54)c3)ccc2n1` (racemic) [Example 165, racemic-8-((3-(4-Amino-2-methylpyrido[3,2-d]pyrimidin-6-yl)phenyl)ethynyl)-5,6,7,8-tetrahydroquinolin-8-ol], for which the IC50 in test [1] is 120 nM; in test [2], more than 5000 nM.

Regarding `CN1CC[C@@](O)(C#Cc2cccc(-c3ccc4ccnc(N5CCC5)c4c3)c2)C1=O` [Example 234, (R)-3-((3-(1-(Azetidin-1-yl)isoquinolin-7-yl)phenyl)ethynyl)-3-hydroxy-1-methylpyrrolidin-2-one], the IC50 in test [1] was 1800 nM; in test [2] it was more than 5000 nM.

In the case of `Cc1cc2ncnc(N)c2nc1-c1cccc(C#C[C@]2(O)CCN(C)C2=O)c1` [Example 189, (R)-3-((3-(4-Amino-7-methylpyrido[3,2-d]pyrimidin-6-yl)phenyl)ethynyl)-3-hydroxy-1-methylpyrrolidin-2-one], the figures for the IC50 in test [1] and in test [2] were 1.8 nM and 71 nM, respectively.

As for `CN1CC[C@@](O)(C#Cc2cccc(-c3ncc4c(CC(C)(C)C)cnc(N)c4n3)c2)C1=O` [Example 151, (R)-3-((3-(8-Amino-5-neopentylpyrido[3,4-d]pyrimidin-2-yl)phenyl)ethynyl)-3-hydroxy-1-methylpyrrolidin-2-one], the concentration for half-maximal inhibition (IC50) in test [1] turned out to be 0.7 nM; in test [2] it was 28 nM.

For the compound `Cc1cnc(N)c2nc(-c3cccc(C#C[C@@](C)(O)c4nccs4)c3)ncc12` [Example 50, (R)-4-(3-(8-Amino-5-methylpyrido[3,4-d]pyrimidin-2-yl)phenyl)-2-(thiazol-2-yl)but-3-yn-2-ol], the half-inhibitory concentration (IC50) in test [1] is not above 0.5 nM; in test [2] it was 17 nM.

For the compound `C[C@@](O)(C#Cc1cccc(-c2nc(C(F)(F)F)c3ccnc(N)c3n2)c1)c1nccs1` [Example 49, (R)-4-(3-(8-Amino-4-(trifluoromethyl)pyrido[3,4-d]pyrimidin-2-yl)phenyl)-2-(thiazol-2-yl)but-3-yn-2-ol], the IC50 came out at 2.5 nM in test [1] and 130 nM in test [2].

Regarding `CN1CC[C@](O)(C#Cc2cccc(-c3ncc4cc[nH]c(=O)c4n3)c2)C1=O` [Example 31, (S)-2-[3-[2-(3-Hydroxy-1-methyl-2-oxo-pyrrolidin-3-yl)ethynyl]phenyl]-7H-pyrido[3,4-d]pyrimidin-8-one], the IC50 was 23 nM in test [1] and 550 nM in test [2].

For the compound `CC1(C)CC[C@](O)(C#Cc2cccc(-c3ccc4ncnc(N)c4n3)c2)C1=O` [Example 132, (S)-2-[2-[3-(4-Aminopyrido[3,2-d]pyrimidin-6-yl)phenyl]ethynyl]-2-hydroxy-5,5-dimethyl-cyclopentanone], the IC50 in test [1] turned out to be 46 nM; in test [2], 730 nM.

In the case of `CN1CC[C@@](O)(C#Cc2cccc(-c3nc(N4CCOCC4)c4ccnc(N)c4n3)c2)C1=O` [Example 57, (R)-3-((3-(8-Amino-4-morpholinopyrido[3,4-d]pyrimidin-2-yl)phenyl)ethynyl)-3-hydroxy-1-methylpyrrolidin-2-one], the half-maximal inhibitory concentration (IC50) was 1.3 nM in test [1] and 35 nM in test [2].

For `CN1CC[C@@](O)(C#Cc2cccc(-c3nc4c(N)nccc4s3)c2)C1=O` [Example 116, (R)-3-((3-(4-Aminothiazolo[4,5-c]pyridin-2-yl)phenyl)ethynyl)-3-hydroxy-1-methylpyrrolidin-2-one], the IC50 came out at 0.9 nM in test [1] and 47 nM in test [2].

Regarding `COc1ccc(C#C[C@]2(O)CCN(C)C2=O)cc1-c1nc2c(N)ncnc2s1` [Example 194, (R)-3-((3-(7-Aminothiazolo[5,4-d]pyrimidin-2-yl)-4-methoxyphenyl)ethynyl)-3-hydroxy-1-methylpyrrolidin-2-one], the IC50 turned out to be 1 nM in test [1] and 8.3 nM in test [2].

With `CN1CC[C@@](O)(C#Cc2cccc(-c3cc(N4CC(F)(F)C4)c4ncnc(N)c4n3)c2)C1=O` [Example 300, (R)-3-[2-[3-[4-Amino-8-(3,3-difluoroazetidin-1-yl)pyrido[3,2-d]pyrimidin-6-yl]phenyl]ethynyl]-3-hydroxy-1-methyl-pyrrolidin-2-one], the IC50 was 1.2 nM in test [1] and 39 nM in test [2].

Take `Cc1cnc(N)c2nc(-c3cccc(C#C[C@]4(O)CCN(C)C4=O)c3)ccc12` [Example 120, (R)-3-[2-[3-(8-Amino-5-methyl-1,7-naphthyridin-2-yl)phenyl]ethynyl]-3-hydroxy-1-methyl-pyrrolidin-2-one]: the results for the IC50 in test [1] and in test [2] were not above 0.5 nM and 21 nM, respectively.

As to `Cc1nc(N)c2nc(-c3cccc(C#C[C@@]4(O)C[C@H](C)N(C)C4=O)c3)ccc2n1` [Example 266, (3S,5S)-3-((3-(4-Amino-2-methylpyrido[3,2-d]pyrimidin-6-yl)phenyl)ethynyl)-3-hydroxy-1,5-dimethylpyrrolidin-2-one], the concentration for half-maximal inhibition (IC50) was determined as 680 nM in test [1] and 3700 nM in test [2].

For the compound `Cc1nnc([C@](C)(O)C#Cc2cccc(-c3ccc4ccnc(N)c4n3)c2)o1` [Example 88, (R)-4-[3-(8-Amino-1,7-naphthyridin-2-yl)phenyl]-2-(5-methyl-1,3,4-oxadiazol-2-yl)but-3-yn-2-ol], the half-inhibitory concentration (IC50) is 4.7 nM in test [1] and 400 nM in test [2].
